Test results reported in BindingDB's records for patent US20230322789 (Broadenbio, 2023).

Target: Mitogen-activated protein kinase kinase kinase kinase 1 (Homo sapiens, UniProt Q92918)
Test: HPK1 Kinase Activity Inhibition Assay
Protocol: 1. HPK1 Kinase Activity Inhibition Test. The kinase activity of HPK1 is manifested as activity of autophosphorylation and phosphorylation of downstream substrates. In the process of autophosphorylation, additional substrates are not required, and ATP is consumed to generate ADP. […] Transfer 2 μL of 2×[…] kinase solution to 384 reaction plate, add 1 μL of the test compound to the 384 reaction plate (Greiner, 784075), centrifuge for 1 minute (1000 rpm/min), incubate at 25° C. for 10 minutes. […] of the 4×ATP mixture to a 384 reaction plate, centrifuge for 1 minute (1000 rpm/mm), and incubate at 25° C. for 60 minutes. In the reaction system, the final concentration of DMSO was […]. Transfer 4 μL of ADP-Glo to a 384 reaction plate, centrifuge for 1 minute (1000 rpm/min), and incubate at 25° C. for 40 minutes. Transfer 8 μL detection solution to a 384 reaction plate, centrifuge for 1 minute (1000 rpm/min), and incubate at 25° C. for 40 minutes. The […] signal was read using a Biotek multi-function plate reader, and the […] (half inhibitory concentration) of the compound was obtained using a four-coefficient nonlinear fitting formula.

Sequence of Mitogen-activated protein kinase kinase kinase kinase 1 (Q92918 whole entry): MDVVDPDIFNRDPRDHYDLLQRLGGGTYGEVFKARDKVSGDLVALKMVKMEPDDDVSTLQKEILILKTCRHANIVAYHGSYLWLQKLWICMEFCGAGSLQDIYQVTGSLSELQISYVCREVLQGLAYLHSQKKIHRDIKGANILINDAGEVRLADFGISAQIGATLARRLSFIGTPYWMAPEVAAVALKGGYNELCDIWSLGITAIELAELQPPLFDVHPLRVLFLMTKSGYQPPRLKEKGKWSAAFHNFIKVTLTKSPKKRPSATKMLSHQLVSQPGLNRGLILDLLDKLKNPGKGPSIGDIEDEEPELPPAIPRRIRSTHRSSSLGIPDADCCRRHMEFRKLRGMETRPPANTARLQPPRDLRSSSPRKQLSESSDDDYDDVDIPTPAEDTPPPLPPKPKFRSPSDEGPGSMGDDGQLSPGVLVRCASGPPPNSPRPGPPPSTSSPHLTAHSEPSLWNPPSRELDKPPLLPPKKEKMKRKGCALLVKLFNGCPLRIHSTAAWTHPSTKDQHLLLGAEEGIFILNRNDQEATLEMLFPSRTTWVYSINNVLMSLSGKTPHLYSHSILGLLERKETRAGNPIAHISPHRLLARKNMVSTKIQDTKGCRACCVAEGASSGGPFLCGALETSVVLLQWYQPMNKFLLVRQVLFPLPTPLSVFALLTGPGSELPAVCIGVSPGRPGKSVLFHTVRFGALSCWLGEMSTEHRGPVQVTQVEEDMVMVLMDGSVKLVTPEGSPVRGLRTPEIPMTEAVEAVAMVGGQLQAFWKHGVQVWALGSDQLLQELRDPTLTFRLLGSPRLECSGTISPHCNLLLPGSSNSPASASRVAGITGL

| SMILES | IC50 [nM] |
| --- | --- |
| CCc1cccc(F)c1-n1nc2c(-c3ccc(N4CCN(CC(C)(C)O)CC4)cc3)n[nH]c2cc1=O [US20230322789, Compound 116] | < 50 |
| Cc1cccc(F)c1-n1nc2c(-c3ccc(N4CCN5C(=O)OCC5C4)nc3)n[nH]c2cc1=O (configuration not stated) [US20230322789, Compound 129] | < 50 |
